Experimental data reported in patent US9249159B2, “Composition for treating hepatitis C virus, regulating phosphorylation of replicase” (Industry-Academic Cooperation Foundation, Yonsei University, priority 2011, dated 2016).

Assays:
[1] = test system: PRK2; assay: PRK2 level in Huh7 cell by immunoblotting; assay type: cell-based; conditions: 500 nM, 48 hours
[2] = test system: Rho-kinase I (ROCKI); assay: ROCKI level in Huh7 cell by immunoblotting; assay type: cell-based; conditions: 48 hours
[3] = test system: genotype 1b HCV subgenomic replicon (R-1 cell line); assay: HCV replication (HCV RNA by real-time RT-PCR, NS5B protein by Western blot) in R-1 subgenomic replicon cells; assay type: cell-based, hepatitis C virus genotype 1b; conditions: R-1 cell
Source text: In order to check a PRK2 phosphorylation inhibition effect of the novel inhibitors obtained in Example 1, R-1 cell line harboring HCV subgenomic replicons was used.
The R-1 cell line was comprised of cis-acting RNA elements of 5′ and 3′-end untranslated regions (UTR) essential for replication of HCV RNA, a selection marker inserted to select a replicated RNA into a portion from which a structural protein coding site was removed, and a non-structural protein (NS3-NS5B)-coding gene required for replication. In the replicon, the selection marker was expressed by the HCV 5′-UTR and internal ribosome entry site (IRES) as a part of a coding gene of a core protein as a structural protein and capsid protein, and HCV non-structural proteins were expressed by IRES of EMCV. In order to obtain replicon cells, a HCV subgenomic replicon RNA was obtained by means of in vitro transcription by using a T7 RNA polymerase, free ribonucleotide was removed by using a spin column, and introduced into a hepatocellular carcinoma cell line by electroporation. In the presence of G418, a stable cell line, i.e. a cell line showing a resistance to G418 through replication of HCV subgenome, was obtained. Expression of the HCV non-structural proteins in this cell line was analyzed by Western blot to confirm that replication was being carried out, and the R-1 cell line was constructed. It was observed that an HCV RNA copy number was about 10^7 copies/mL by a quantitative real-time PCR analysis using a TaqMan probe. The R-1 cell line was a cell line in which HCV RNA replication was being carried out, and thus it could be used to evaluate an HCV replication inhibition effect of a PRK2 activity inhibitor.
Then, after the R-1 cell line was treated with each of 5 screened PRK2 inhibitors, HA1077 currently and clinically used as a PRK2 activity inhibitor, and Y27632 having a PRK2 activity inhibition effect at a final concentration of 20 μM for 48 hours, levels of HCV NS5B protein and HCV RNA in cell lysates (50 μg) were analyzed by Western blot and real-time RT-PCR.
To do so, after the two cell lines were treated with the compound #17 at higher concentrations (60 and 100 μM) than 20 μM for 48 hours, an HCV RNA genome level was checked by a real-time RT-PCR analysis. A value was a mean±standard deviation (SD) of three independent measurements. HCV RNA titer was quantified by real-time PCR analysis. Three independent experiments were performed in triplicate.
5 derivatives (#18 to #22: refer to FIG. 2) were produced based on the inhibitor #17 showing the best effect. After the R-1 cell line was treated with each of these inhibitors or HA1077 and Y27632 at a final concentration of 20 μM for 48 hours, an HCV RNA genome level was checked by a real-time RT-PCR analysis and expressed in % with respect to a control treated with DSMO. Three independent experiments were conducted repeatedly three times. Data were expressed by mean±SD of the three experiments.
Total RNA was extracted from R-1 or HCV (JFH1)-infected cells using TRIzol LS reagent (Invitrogen, Carlsbad, Calif., USA) and purified according to the manufacturer's instructions. HCV RNA levels were quantified by RT-PCR using a primer pair and TaqMan probe targeting a region within the HCV 5′-UTR as described previously. Cellular glyceraldehyde-3-phosphate dehydrogenase was used as an internal control. Assays were performed using the DyNAmo Probe 2-step qRT-PCR Kit (Finnzymes, Espoo, Finland) and a CHROMO4 continuous fluorescence detector (Bio-Rad, Hercules, Calif., USA), according to the manufacturer's instructions.
Therefore, anti-HCV activity of 17-DMAG in the R-1 cell was tested at a level lower than 50 nM. To do so, the R-1 cell was treated with a vehicle (0.25% DMSO) or 17-DMAG for 72 hours and the cell lysates (50 μg) and antibodies specific to the proteins were immunoblotted to measure levels of the proteins. An anti-α-tubulin antibody (lower end panel) was used as an internal loading control. […]

[4] = test system: pan-PKC (α, β, and γ); assay: pan-PKC level in Huh7 cell by immunoblotting; assay type: cell-based; conditions: 48 hours
Source text: Total cell lysates from cells treated with inhibitors or IFN-α by using antibodies to PDK1, p-PDK1 (S241), PRK2, and p-PRK2 (T816) (products of Cell Signaling Technology, Inc., Beverly, Mass., USA) was used for immunoblotting. In order to detect PKC isoforms α, β, and γ, a polyclonal antibody to a consensus sequence present in three PKC (protein kinase C) isoforms α, β and γ (anti-pan-PKC; Zymed Laboratories, San Francisco, Calif., USA) was used. An anti-α-tubulin antibody (Oncogene Research Products, Cambridge, Mass., USA) was carried out in immunoblotting for checking whether or not the same amount of protein was loaded.
In order to test whether or not PDK1 in Huh7 as an HCC cell line was destabilized by inhibition of Hsp90, 17-DMAG as a second-generation geldanamycin derivative known as being safer than geldanamycin or its derivative 17-AAG and effective for oral delivery was used (FIG. 8A). The Huh7 cell was treated for 48 hours along with an increase in concentration of 17-DMAG, and a steady state level of PDK1 was evaluated by immunoblotting.

Compound: CO[C@H]1/C=C\C=C(/C)C(=O)NC2=CC(=O)C(NCCN(C)C)=C(C[C@@H](C)C[C@H](OC)[C@H](O)[C@@H](C)/C=C(\C)[C@@H]1OC(N)=O)C2=O [17-DMAG, 17-(dimethylaminoethylamino)-17-demethoxygeldanamycin]
- decrease of PRK2 level as compared with non-treated control [1]: about 68%
- steady state content of Rho-kinase I (ROCKI) [2]: not significantly affected
- decrease in viral RNA ([3]; 50 nM 17-DMAG combined with 100 IU/mL IFN-α, 72 hours): hundredfold
- inhibition of HCV RNA replication ([3]; 50 nM, 72 hours): about 50%
- inhibition of virus replication ([3]; 17-DMAG 50 nM combined with HA1077 20 μM): approximately 80%
- steady state content of pan-PKC (α, β, and γ) [4]: not significantly affected
